Results from patent US9296749B2, “Crystalline cis-(E)-4-(3-fluorophenyl)-2′,3′,4′,9′-tetrahydro-N,N-dimethyl-2′-(1-oxo-3-phenyl-2-propenyl)-spiro[cyclohexane-1,1′[1H]” (priority 2013, dated 2016).

How the values were obtained:
Type in all cases: physicochemical
[1] = Storage of crystalline form C, X-ray diffraction; details: stored for up to 4 months
[2] = Chemical stability of crystalline forms, open-vial storage (content by HPLC, crystalline form by XRPD); details: listed as C
Experimental: Samples of compound 1 in different crystalline forms were stored in open vials under controlled conditions at different temperatures and rel. humidities for 28 days. Prior to storage and after 14 and 28 days the content of compound (1) in the sample was determined via HPLC and the crystalline form was measured via XRPD.

[3] = Dynamic vapor sorption (DVS), hygroscopicity
Experimental: Crystalline forms were characterized by dynamic vapor sorption (DVS) using a Porotec DVS 1000 or a SMS DVS Intrinsic water vapor sorption analyzer. For the DVS analysis, a step width of 10% r.h. was applied allowing the samples to equilibrate and reach weight constancy (±0.002%) for at least 10 min on each step. All measurements were performed according to the following program: 50% r.h.→90% r.h., 90→0% r.h., 0%→90% r.h., 90%→50% r.h. A cycle with increasing humidity is also known as a sorption cycle, a cycle with decreasing humidity is also known as a desorption cycle. The details of the respective DVS measurements are shown below in table 51 and discussed further below.
The hygroscopicity of the respective crystalline forms determined via the DVS measurements was classified according to the ranges for mass increase defined in the European Pharmacopoeia: very hygroscopic (vh): increase of the mass ≧15%; hygroscopic (h): increase of the mass is less than 15% and equal or greater than 2%; slightly hygroscopic (sh): increase of the mass is less than 2% and equal or greater than 0.2%; not hygroscopic (nh): increase of the mass is less than 0.2%; deliquescent (d): sufficient water is absorbed to form a liquid.

SMILES: CN(C)[C@]1(c2cccc(F)c2)CC[C@]2(CC1)c1[nH]c3ccccc3c1CCN2C(=O)/C=C/c1ccccc1 [crystalline form C, cis-(E)-4-(3-Fluorophenyl)-2′,3′,4′,9′-tetrahydro-N,N-dimethyl-2′-(1-oxo-3-phenyl-2-propenyl)-spiro[cyclohexane-1,1′[1H]-pyrido[3,4-b]indol]-4-amine]
- conversion on storage [1]: converted to Polymorph I in three to four months
- Content cmpd (1) ([2]; 40° C., 75% r.H., storage 0 d): 99.67%
- Content cmpd (1) ([2]; 40° C., 75% r.H., storage 14 d): 99.68%
- Content cmpd (1) ([2]; 40° C., 75% r.H., storage 28 d): 99.44%
- Content cmpd (1) ([2]; 50° C., storage 0 d): 99.67%
- Content cmpd (1) ([2]; 50° C., storage 14 d): 99.57%
- Content cmpd (1) ([2]; 50° C., storage 28 d): 99.20%
- weight loss ([3]; desorption cycle from 90 to 0% r.h.): about 6.6%
- change in mass ([3]; sorption cycle from 50% to 90% relative humidity): no major change in mass
- weight gain at 90% ([3]; subsequent sorption cycle): about 2.8%
